Assay results reported in patent US20220095609A1, “FREEZING OF BIOLOGICAL MATERIAL” (SCI-GROUP AS, priority 2018, published 2022).

Columns and labels:
[1] = tested on: T-47D breast cancer cells; experiment: Colony formation (plating efficiency) after freezing and thawing, T-47D; format: cell-based, human; details: Standard freezing with 5% DMSO (30 min -20° C., 45 min ~-80° C., liquid N2)
Excerpt: (§1) The objective was to test the importance of the duration of ice-formation time (=time to remove latent heat during ice formation) of seed stocks of two established human cells lines: T-47D breast cancer cells and T98G glioblastoma cells, for viability after thawing. In addition to variation in ice-forming time two variables have been tested: • Cells frozen without DMSO or with 5% DMSO • Cells frozen within a mixed strong magnetic (0.2-0.3 T)-pulsing electric (20V (220V/m)-20kHZ) field (hereinafter termed “Strong MAG/PEF”), or just outside the Field Box in a weak magnetic (0,005-0,008T)-pulsing electric (7-16V (75-185V/m)-20 kHz) (hereinafter “Weak MAG/PEF) field.
(§2) The cells of both types were grown as monolayer cultures in RPMI 1640 medium (Gibco, Rockwill, Md., USA) supplemented with 10% fetal calf serum (Gibco), 2 mM L-glutamine, 200 units/I insulin and 1% penicillin/streptomycin (Gibco). […]
(§3) For each cell type separate preparation of samples for freezing was performed by standard trypsin treatment of several flasks and pooling of the cells after removal of the trypsin solution and re-suspending of the cells in RPMI-medium. After pooling the cell numbers per ml were accurately counted on a flow cytometer and thereafter dilutions of cell suspensions suitable to obtain the concentration of cells desired for transfer to the cryo-tubes were made for each cell type. […]

[2] = tested on: adherent CHO cells (chinese hamster ovary cells K1); experiment: Colony formation (plating efficiency) after freezing and thawing, adherent CHO cells; format: cell-based
Excerpt: The objective was to test the importance of the duration of ice-formation (=time to remove latent heat during ice formation) of seed stocks of adherent CHO cells (chinese hamster ovary cells K1 for viability after thawing. In addition to variation in ice-forming time two variables have been tested: • Cells frozen without DMSO or with 5% DMSO • Cells frozen within a mixed strong magnetic (0,2-0,3T)-pulsing electric (20V (220V/m)-20kHZ) field (hereinafter termed “Strong MAG/PEF”), or just outside the Field Box in a weak magnetic (0,005-0,008T)-pulsing electric (7-16V (75-185V/m)-20 kHz) (hereinafter “Weak MAG/PEF) field.
(§4) The cells were grown in 162 cm^2 flasks as monolayer cultures in Ham's F12 medium supplemented with 10% fetal calf serum. The cells were kept in continuous exponential growth by re-culturing twice per week. Harvest for re-culturing or for freezing was done by removing the growth medium, rinsing two times in 1.5 ml trypsin EDTA solution (0.05% and 0.02% respectively), and incubating cultures for 5 min at 37° C. in the residual trypsin solution. The trypsinization was stopped by adding Ham's F12 medium with FBS.
(§5) Cells were resuspended and counted using Countess Automated Cell counter with Trypan Blue Stain (0.4%) to estimate the cell viability.
(§6) The cell suspension was transferred to 15 ml tube and centrifuged (200 g, 5 min, 4° C.). The supernatant was removed and the cell pellets were resuspended in cold FBS to give a final concentration of 2×10^6 cells/ml. 0.5 ml of the cell suspension was transferred to 2 ml cryo-tube. Equal volume (0.5 ml) freezing medium with or without DMSO-medium was added to each cryotube to give a final 5% concentration of DMSO and 1×10^6 cells per ml in each tube.
After 10 days in liquid nitrogen samples were thawed and cells seeded for colony formation. There were 3 parallel flasks for each sample tested. The control was the traditional procedure used in the laboratory with 5% DMSO and with 30 min in −20° C., 45 min in ˜−80° C. and final storage in liquid N2.
The flasks were incubated for colony formation in a Steri-cult 200 incubator operated at 37° C. and with 5% CO2 in the atmosphere. Incubation continued for six days. For counting of macroscopic colonies cells were fixed in ethanol and stained with methylene blue.

T98G glioblastoma cells = experiment: Colony formation (plating efficiency) after freezing and thawing, T98G; format: cell-based, human; details: Standard freezing with 5% DMSO (30 min -20° C., 45 min ~-80° C., liquid N2); T-98G
Excerpt: as §1, §2, §3

cells = experiment: MTS bioassay, viability after freezing and thawing; format: cell-based
Excerpt: […] the presence of a combined magnetic (0.2-0.3 T)-pulsing electric fields (20V (220V/m)-20kHZ), in the presence or absence of DMSO (0-5%) measured as the fraction of cells retaining their full proliferative capacity after freezing, monitored with a rapid bioassay-MTS-as an alternative to conventional plating efficiency testing.
The experiment included the standard method used by most researchers, i.e. freezing with 5% DMSO in a “Nalgene Mr Frosty” apparatus (Merck KgaA, Germany), operated with a 15 minutes phase-transition time corresponding to the state of the art freezing rate of 1 degree per minute.
as §4, with “grown to 70% confluence” for “grown”, “serum (FBS).” for “serum.”
as §5
as §6, with “(200xg,” for “(200 g,”
After 15 days in liquid nitrogen samples were thawed and cells seeded for MTS assay as follows: • cells were transferred to 15 ml tubes containing 4 ml culture media (total volume of 4+1=5 ml) and centrifuged at 200×g, 10 min, 4° C. • cells were resuspended in 1 ml media with 1% FBS and further diluted 10 times to give a concentration of 1×10^5/ml based on the initial counting before freezing. • After dilution, 0.2 ml of cells from each freezing condition was seeded in 96 well plates and the plates were incubated at 37° C. until the next day. • After the overnight incubation, media was removed and 0.1 ml of a fresh 1% FBS media was added. 20 μl of MTS reagent was added. • Finally, OD490 values were read after 1-4 hours incubation. The number of viable cells/well were calculated based on a standard curve generated using ongoing cell cultures. The calculation was performed in GraphPad Prism 8, using four parameter nonlinear logistic regression and the curve fitting function.

C[S+](C)[O-] [DMSO, Dimethyl sulfoxide]
Plating efficiency—PE (%) [1]: 80-90% | PE: plating efficiency (%) ([2]; 5% DMSO, ice formation time 1 min 55 sec, Strong MAG/PEF): 88% | PE: plating efficiency (%) ([2]; 5% DMSO, ice formation time 1 min 55 sec, Weak MAG/PEF): 98% | PE: plating efficiency (%) ([2]; 5% DMSO, ice formation time 4 min 8 sec, Weak MAG/PEF): 95% | PE: plating efficiency (%) ([2]; 5% DMSO, ice formation time 5 min 7 sec, Strong MAG/PEF): 72% | PE: plating efficiency (%) ([2]; 5% DMSO, ice formation time 5 min 7 sec, Weak MAG/PEF): 64% | PE: plating efficiency (%) ([2]; 4 min): 107 (artefacted) % | Plating efficiency—PE (%) (T98G glioblastoma cells): 57% | difference in viability between 2 min and 3 min (optimal point) phase-transition time (cells; 1% DMSO): 13% | difference in viability between 3 min and 4 min phase-transition time (cells; 1% DMSO): 39% | percentage viability after freezing and thawing (cells; 1% DMSO, phase-transition time 1.4 min, magnetic 0.2-0.3 T, pulsing electric field): 8% | percentage viability after freezing and thawing (cells; 1% DMSO, phase-transition time 1.8 min, magnetic 0.2-0.3 T, pulsing electric field): 26% | percentage viability after freezing and thawing (cells; 1% DMSO, phase-transition time 2 min, magnetic 0.2-0.3 T, pulsing electric field): 36% | percentage viability after freezing and thawing (cells; 1% DMSO, phase-transition time 2.2 min, magnetic 0.2-0.3 T, pulsing electric field): 35% | percentage viability after freezing and thawing (cells; 1% DMSO, phase-transition time 2.4 min, magnetic 0.2-0.3 T, pulsing electric field): 41% | percentage viability after freezing and thawing (cells; 1% DMSO, phase-transition time 2.6 min, magnetic 0.2-0.3 T, pulsing electric field): 45% | percentage viability after freezing and thawing (cells; 1% DMSO, phase-transition time 2.7 min, magnetic 0.2-0.3 T, pulsing electric field): 47% | percentage viability after freezing and thawing (cells; 1% DMSO, phase-transition time 3 min, magnetic 0.2-0.3 T, pulsing electric field): 47% | percentage viability after freezing and thawing (cells; 1% DMSO, phase-transition time 4 min, magnetic 0.2-0.3 T, pulsing electric field): 4% | percentage viability after freezing and thawing (cells; 1% DMSO, phase-transition time 5.5 min, magnetic 0.2-0.3 T, pulsing electric field): 4% | percentage viability after freezing and thawing (cells; 2% DMSO, phase-transition time 1.4 min, magnetic 0.2-0.3 T, pulsing electric field): 36% | percentage viability after freezing and thawing (cells; 2% DMSO, phase-transition time 1.8 min, magnetic 0.2-0.3 T, pulsing electric field): 57% | percentage viability after freezing and thawing (cells; 2% DMSO, phase-transition time 2 min, magnetic 0.2-0.3 T, pulsing electric field): 53% | percentage viability after freezing and thawing (cells; 2% DMSO, phase-transition time 2.2 min, magnetic 0.2-0.3 T, pulsing electric field): 61% | percentage viability after freezing and thawing (cells; 2% DMSO, phase-transition time 2.4 min, magnetic 0.2-0.3 T, pulsing electric field): 52% | percentage viability after freezing and thawing (cells; 2% DMSO, phase-transition time 2.6 min, magnetic 0.2-0.3 T, pulsing electric field): 63% | percentage viability after freezing and thawing (cells; 2% DMSO, phase-transition time 2.7 min, magnetic 0.2-0.3 T, pulsing electric field): 65% | percentage viability after freezing and thawing (cells; 2% DMSO, phase-transition time 3 min, magnetic 0.2-0.3 T, pulsing electric field): 66% | percentage viability after freezing and thawing (cells; 2% DMSO, phase-transition time 4 min, magnetic 0.2-0.3 T, pulsing electric field): 27% | percentage viability after freezing and thawing (cells; 2% DMSO, phase-transition time 5.5 min, magnetic 0.2-0.3 T, pulsing electric field): 17% | percentage viability after freezing and thawing (cells; 5% DMSO, phase-transition time 1.8 min, magnetic 0.2-0.3 T, pulsing electric field): 76% | percentage viability after freezing and thawing (cells; 5% DMSO, phase-transition time 2.2 min, magnetic 0.2-0.3 T, pulsing electric field): 74% | percentage viability after freezing and thawing (cells; 5% DMSO, phase-transition time 2.4 min, magnetic 0.2-0.3 T, pulsing electric field): 90% | percentage viability after freezing and thawing (cells; 5% DMSO, phase-transition time 2.6 min, magnetic 0.2-0.3 T, pulsing electric field): 98% | percentage viability after freezing and thawing (cells; 5% DMSO, phase-transition time 2.7 min, magnetic 0.2-0.3 T, pulsing electric field): 97% | percentage viability after freezing and thawing (cells; 5% DMSO, phase-transition time 3 min, magnetic 0.2-0.3 T, pulsing electric field): 97% | percentage viability after freezing and thawing (cells; 5% DMSO, phase-transition time 4 min, magnetic 0.2-0.3 T, pulsing electric field): 99% | percentage viability after freezing and thawing (cells; 5% DMSO, phase-transition time 5.5 min, magnetic 0.2-0.3 T, pulsing electric field): 99% | percentage viability after freezing and thawing (cells; 5% DMSO, phase-transition time 15 min, standard method, Nalgene Mr Frosty, 1 degree per minute): 68%
